Here are results for 2 compounds from patent publication US20250170172A1, “METHODS FOR TREATING LENTIVIRUS INFECTION” (Jericho Sciences, LLC, priority 2022, published 2025).

One data set concerns SIV mRNA positive cells. In words: SIV mRNA positive cell frequency in lymph node and spleen by FISH. It counts as in vivo, Rhesus macaque (Macaca Mulatta). The settings on record: FX-only treatment group. How it is done: The higher Tier 2 antibody productions indicated differences in germinal center capacities, so we performed (blinded) histochemical evaluation of axillary lymph node and spleen tissues collected at necropsy. Tissues were evaluated using fluorescent in situ hybridization (FISH) probes for each, IL-21 mRNA and SIV mRNA. Cells (stained with 4′,6-diamidino-2-phenylindole) were designated either positive or negative for each hybridization label. The frequency of positive cells was determined by dividing the positive signal by the total number of cells in the field of vision. […]
(§1) Quantification of fluorescent immunohistochemistry and in situ hybridization. […] Whole slide images were analyzed using HALO image analysis software v3.1 (Indica Labs, Albuquerque, NM). […] When quantifying SIV infected cells, areas with a dendritic pattern were excluded from the analysis. […] Comparison of treatment groups was assessed using a Mann-Whitney Test (2-tailed, nonparametric)
The frequency of SIV positive cells per million cells was determined using fluorescent in situ hybridization (FISH) as described in Example 8. […]

In data set [1] the test system is zinc binding domain of nucleocapsid protein peptide. In words: MALDI-TOF competitive binding to nucleocapsid protein peptide in presence of zinc. On the set-up: species or system HIV. The following applies: equimolar ~2×10^−4 Molar in saline, with and without zinc. How it is done: FIG. 1 illustrates in vitro competitive binding of FX101 to the zinc binding domain of nucleocapsid protein peptide in the presence of zinc ions using Matrix-assisted laser desorption ionization (MALDI)—time of flight (TOF) analyses. Mixtures were prepared in equimolar concentrations of ˜2×10^−4 Molar solutions in saline. […] Mass Spectrometer: Voyager DE STR (Applied Biosystems). Software: Voyager Instrument Control Panel (v 5.1) and Data Explorer (v4.0) Instrument Method: (a) ACTH_Reflector_Aug24_2010; Accelerating voltage 25000; Grid voltage 63.8%; Mirror voltage ratio1.12, Laser Rep Rate 20.0 Hz Band width 500: Vertical Scale 50, Bin size 0.5: Acquisition mass range 800-4000 Da; Delay 155, 165, or […], Laser Intensity 1480-1590. (b) angiotensine.bic, 75 nsec delay time Calibration: C1 or C2 standards in DHB matrix. Matrix: DHB (Laser BioLabs, France), 10 mg/ml in (a) 50% acetonitrile/50% water-0.1% TFA/50% water, no TFA, and (b) 50% ethanol/50% water, no TFA. Spotted: 0.5 μL sample.
The nucleocapsid protein (NC) of HIV is an established but elusive therapeutic target for HIV infection. Currently available antiretroviral drugs predominately target viral enzymes involved in replication, including reverse transcriptase, integrase and protease. Recently, a new drug class targeting the structural capsid protein has been approved. […]

Data set [2] is described as follows: Safety assessment in SIV-infected Rhesus macaques (blood counts, clinical chemistries, flow cytometry, necropsy, histochemistry). The settings on record: 3 mg/kg, 3 times weekly for up to 24 weeks, subcutaneous. It counts as in vivo, Rhesus macaque (Macaca Mulatta). How it is done:
Antiviral treatments were initiated at 10 weeks post-infection after the initial inflammatory response had subsided. All drug treatments were administered subcutaneously to avoid repeated sedations of the animals. The control animals received vehicle only (10% dimethylsulfoxide in phosphate buffered saline, DMSO/PBS). The dual-treated group received equal dosing amounts and frequencies of FX101 (3.0 mg/kg, 3× weekly) and cART (daily); the cART treatment group received two nucleo(t/s)ide RT inhibitors (NRTIs), emtricitabine (FTC, 50 mg/kg) and tenofovir disoproxil fumarate (TDF, tenofovir prodrug, 5.1 mg/kg) plus one integrase strand transfer inhibitor (INSTI), dolutegravir (DTG, 2.5 mg/kg). […] Therapeutic cART treatments were administered for up to 24 total weeks, with animals followed for up to 27 weeks post cART cessation (˜1 year post infection). All animals were monitored daily for signs of adverse events during the study.
Safety was assessed by complete blood chemistries, clinical chemistries, flow cytometry, gross necropsies and histochemical tissue imaging. There were no apparent drug-related adverse events between treatment arms across these measures over the study timeline. However, since all the animals were SIV-infected, measures and observations outside of normal healthy expected ranges occurred. […]
Background: In flow cytometry, cells or beads pass a laser one at a time.

In the next data set the test system is SIVmac251. In words: Plasma viremia by TAQMAN RT-PCR in SIVmac251-infected Rhesus macaques. It counts as in vivo, Rhesus macaque (Macaca Mulatta). The settings on record: monotherapy 3.0 mg/kg 3 times weekly, subcutaneous. How it is done: Twenty-four specific pathogen-free (SPF), all male, Rhesus macaque (Macaca Mulatta) nonhuman primates (NHPs) of Indian origin were utilized for this study. The animals were tested to be free from simian type D retrovirus (SRV), simian immunodeficiency virus (SIV), simian T-cell lymphotropic/leukemia virus (STLV) and Cercopithecine herpesvirus 1 (CHV-1) at study initiation. All animals were pre-screened as negative for the protective MHC class I alleles Mamu-A*01, Mamu-B*08, and Mamu-B*17 since these alleles are associated with elite control of SIV infection. All animal studies were approved by the appropriate Institutional Animal Care and Use Committee (IACUC).
Inoculation of NHPs with SIVmac251. […] Each animal was subsequently monitored.
The twenty-four (24) SIVmac251-infected Rhesus macaques were divided into four groups: (1) sham-treated controls (vehicle only); (2) FX101-treated; (3) combination antiretroviral therapy (cART)-treated and (4) FX101 plus cART-treated. […] Comparative evaluations between groups were determined to evaluate whether FX101 alone and/or in combination with cART safely reduces virus in plasma, CSF, tissue reservoirs and/or sanctuary sites. […] Comparative longitudinal clinical measures were assessed to evaluate the safety profile. […]
Determination of plasma and CSF Viral RNA Levels. The amount of RNA copies per ml was determined using a TAQMAN assay. […]

Data set [3] relates to IL-21 mRNA positive cells. In words: IL-21 mRNA positive cell frequency in lymph node and spleen by FISH. The settings on record: FX-only treated animals; lymph nodes and spleen. It counts as in vivo, Rhesus macaque (Macaca Mulatta). The method, then: The higher Tier 2 antibody productions indicated differences in germinal center capacities, so we performed (blinded) histochemical evaluation of axillary lymph node and spleen tissues collected at necropsy. Tissues were evaluated using fluorescent in situ hybridization (FISH) probes for each, IL-21 mRNA and SIV mRNA. Cells (stained with 4′,6-diamidino-2-phenylindole) were designated either positive or negative for each hybridization label. The frequency of positive cells was determined by dividing the positive signal by the total number of cells in the field of vision.
Immunohistochemistry and in situ hybridization of lymph node and spleen tissues collected at termination. Five μm formalin fixed paraffin embedded tissues sections were mounted on Superfrost Plus Microscope slides, baked overnight at 60° C. and passed through xylene, graded ethanol, and double distilled water to remove paraffin and rehydrate tissue sections. A microwave was used for heat induced epitope retrieval (HIER). […]
as §1

Data set [4] has as its system Japanese encephalitis virus (JEV). The settings on record: cited from earlier work.
For another data set, the system named is dengue virus. The following applies: cited from earlier work.

Turning to `[NH2][Pt]([NH2])([Cl])([Cl])([Cl])[N+](=O)[O-]` [FX101], the “frequencies of virus in spleen and lymph nodes relative to the cART group” value in the data set on SIV mRNA positive cells was “very low frequencies of virus in both spleen and lymph nodes”. Also, the “binding to the nucleocapsid protein zinc domain peptide” value in data set [1] is on record as “binds to the peptide, even in the presence of zinc”. The “adverse events / tolerability” value in data set [2] is “safe and well tolerated”. Moreover, in the data set with SIVmac251, the “direct virus replication inhibition, plasma viremia during the treatment period” value was “no apparent direct virus replication inhibiting activities”. In data set [3], the “frequencies of IL-21 mRNA positive cells versus control animals” value was “higher than for the control animals in both lymph nodes and spleen”.
As for `c1ccc(CN(CCN(Cc2ccccn2)Cc2ccccn2)Cc2ccccn2)nc1` [TPEN, N,N,N′,N′-tetrakis(2-pyridinylmethyl)-1,2-ethanediamine], the “inhibition of Japanese encephalitis virus (JEV) infection” value in data set [4] was “inhibits dengue virus and Japanese encephalitis virus (JEV) infection”. In addition, the “inhibition of dengue virus infection” value with dengue virus was “inhibits dengue virus”.
